Test results taken from PubChem BioAssay AID328 (DTP/NCI, 2004).
Toxic doses and inconclusive results are not listed.

System: BDF1 mice, P388 leukemia ip, median survival T/C
Experiment: NCI In Vivo Anticancer Drug Screen. Data for tumor model P388 Leukemia (intraperitoneal) in B6D2F1 (BDF1) mice
Conditions: endpoint: median survival time, higher = longer survival
Outline: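 Read-out is survival of treated animals expressed relative to the vehicle group, as a T/C ratio.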

[1] = dose: 100.0 mg/kg/injection, schedule: Q01DX009 (ip), vehicle: saline with Tween-80
[2] = dose: 100.0 mg/kg/injection, schedule: Q04DX003 (ip), vehicle: saline with Tween-80
[3] = dose: 200.0 mg/kg/injection, schedule: Q01DX009 (ip), vehicle: saline with Tween-80
[4] = dose: 200.0 mg/kg/injection, schedule: Q04DX003 (ip), vehicle: saline with Tween-80
[5] = dose: 400.0 mg/kg/injection, schedule: Q04DX003 (ip), vehicle: saline with Tween-80
[6] = dose: 25.0 mg/kg/injection, schedule: Q01DX009 (ip), vehicle: saline with Tween-80
[7] = dose: 50.0 mg/kg/injection, schedule: Q01DX009 (ip), vehicle: saline with Tween-80
[8] = dose: 100.0 mg/kg/injection, schedule: Q01DX009 (ip), vehicle: Klucel (hydroxypropylcellulose) (HPC)
[9] = dose: 200.0 mg/kg/injection, schedule: Q01DX009 (ip), vehicle: Klucel (hydroxypropylcellulose) (HPC)
[10] = dose: 50.0 mg/kg/injection, schedule: Q01DX009 (ip), vehicle: water
[11] = dose: 100.0 mg/kg/injection, schedule: Q01DX009 (ip), vehicle: water
[12] = dose: 100.0 mg/kg/injection, schedule: Q04DX003 (ip), vehicle: water
[13] = dose: 200.0 mg/kg/injection, schedule: Q01DX009 (ip), vehicle: water
[14] = dose: 200.0 mg/kg/injection, schedule: Q04DX003 (ip), vehicle: water
[15] = dose: 400.0 mg/kg/injection, schedule: Q01DX009 (ip), vehicle: water
[16] = dose: 400.0 mg/kg/injection, schedule: Q04DX003 (ip), vehicle: water
[17] = dose: 50.0 mg/kg/injection, schedule: Q01DX009 (ip), vehicle: Klucel (hydroxypropylcellulose) (HPC)

CC1(C)N=C(N)N=C(N)N1c1ccc(CCc2ccccc2)c(Cl)c1
T/C (dose: 4.0 mg/kg/injection, schedule: Q01DX009 (ip), vehicle: saline with Tween-80): 122 % of control

Cc1ccc(NCc2nc(N)nc(Nc3ccc(C)cc3)n2)cc1
T/C (dose: 50.0 mg/kg/injection, schedule: Q01DX001 (ip), vehicle: saline sonified): 100 % of control | T/C (dose: 100.0 mg/kg/injection, schedule: Q01DX001 (ip), vehicle: saline sonified): 100 % of control | T/C (dose: 200.0 mg/kg/injection, schedule: Q01DX001 (ip), vehicle: saline sonified): 90 % of control

Cn1nnc2nnc(-c3ccccc3)n21
T/C [1]: 100 % of control | T/C [2]: 100 % of control | T/C [3]: 103 % of control | T/C [4]: 100 % of control | T/C [5]: 95 % of control

COC(=O)C(C)CN1CCCCC1 (configuration not stated)
T/C (dose: 50.0 mg/kg/injection, schedule: Q01DX009 (ip), vehicle: saline): 105 % of control | T/C (dose: 100.0 mg/kg/injection, schedule: Q01DX009 (ip), vehicle: saline): 110 % of control | T/C (dose: 200.0 mg/kg/injection, schedule: Q01DX009 (ip), vehicle: saline): 110 % of control

O=c1oc2ccc(Cl)cc2n1Cc1ccc(Cl)cc1
T/C (dose: 50.0 mg/kg/injection, schedule: Q01DX005 (ip), vehicle: saline with Tween-80): 99 % of control | T/C (dose: 100.0 mg/kg/injection, schedule: Q01DX005 (ip), vehicle: saline with Tween-80): 92 % of control | T/C (dose: 200.0 mg/kg/injection, schedule: Q01DX005 (ip), vehicle: saline with Tween-80): 92 % of control

COc1ccc(CC2OCCC3c4ccccc4NC23)cc1OC (configuration not stated)
T/C [2]: 93 % of control | T/C [4]: 109 % of control | T/C [5]: 111 % of control

O=C(O)CSC(=S)c1ccccc1
T/C [6]: 118 % of control | T/C [1]: 121 % of control

O=Cc1ccc2c(c1)OCCOCCOCCOCCO2
T/C [7]: 104 % of control | T/C [1]: 121 % of control | T/C [3]: 117 % of control

COC(=O)[C@@H]1[C@@H](O)[C@H](OC(=O)c2cc(OC)c(OC)c(OC)c2)C[C@@H]2CN3CCc4c([nH]c5ccccc45)[C@H]3C[C@@H]21
T/C (dose: 1.56 mg/kg/injection, schedule: Q01DX009 (ip), vehicle: saline with Tween-80): 90 % of control | T/C (dose: 2.0 mg/kg/injection, schedule: Q01DX009 (ip), vehicle: Klucel (hydroxypropylcellulose) (HPC)): 100 % of control | T/C (dose: 3.13 mg/kg/injection, schedule: Q01DX009 (ip), vehicle: saline with Tween-80): 90 % of control | T/C (dose: 4.0 mg/kg/injection, schedule: Q01DX009 (ip), vehicle: Klucel (hydroxypropylcellulose) (HPC)): 100 % of control | T/C (dose: 6.25 mg/kg/injection, schedule: Q01DX009 (ip), vehicle: saline with Tween-80): 86 % of control | T/C (dose: 8.0 mg/kg/injection, schedule: Q01DX009 (ip), vehicle: Klucel (hydroxypropylcellulose) (HPC)): 100 % of control | T/C (dose: 16.0 mg/kg/injection, schedule: Q01DX009 (ip), vehicle: Klucel (hydroxypropylcellulose) (HPC)): 100 % of control

CC(Cc1cccs1)N=Cc1cc(Br)ccc1O (configuration not stated)
T/C (dose: 100.0 mg/kg/injection, schedule: Q01DX001 (ip), vehicle: saline with Tween-80): 100 % of control | T/C (dose: 200.0 mg/kg/injection, schedule: Q01DX001 (ip), vehicle: saline with Tween-80): 111 % of control | T/C (dose: 400.0 mg/kg/injection, schedule: Q01DX001 (ip), vehicle: saline with Tween-80): 109 % of control

Cc1cc(O)c(C(C)C)cc1S(=O)(=O)O (tested in a mixture with another compound)
T/C (dose: 37.5 mg/kg/injection, schedule: Q01DX009 (ip), vehicle: Klucel (hydroxypropylcellulose) (HPC)): 95 % of control | T/C [7]: 100 % of control | T/C [1]: 95 % of control | T/C (dose: 150.0 mg/kg/injection, schedule: Q01DX009 (ip), vehicle: Klucel (hydroxypropylcellulose) (HPC)): 100 % of control | T/C (dose: 150.0 mg/kg/injection, schedule: Q01DX009 (ip), vehicle: saline with Tween-80): 150 % of control

NCC=C1C2CC3CC(C2)CC1C3
T/C (dose: 12.5 mg/kg/injection, schedule: Q04DX003 (ip), vehicle: saline): 103 % of control | T/C (dose: 25.0 mg/kg/injection, schedule: Q04DX003 (ip), vehicle: saline): 100 % of control | T/C (dose: 50.0 mg/kg/injection, schedule: Q04DX003 (ip), vehicle: saline): 100 % of control

CCCCCCCCCCCCCCCCCS(=O)S(=O)O (configuration not stated)
T/C (dose: 89.0 mg/kg/injection, schedule: Q01DX009 (ip), vehicle: saline with Tween-80): 116 % of control | T/C [8]: 116 % of control | T/C (dose: 132.0 mg/kg/injection, schedule: Q01DX009 (ip), vehicle: Klucel (hydroxypropylcellulose) (HPC)): 109 % of control | T/C [9]: 119 % of control | T/C (dose: 300.0 mg/kg/injection, schedule: Q01DX009 (ip), vehicle: Klucel (hydroxypropylcellulose) (HPC)): 122 % of control

CCCCN(CCCC)C(=O)C1C=C2c3cccc4[nH]cc(c34)CC2N(C)C1 (configuration not stated)
T/C [10]: 105 % of control | T/C [11]: 94 % of control | T/C [12]: 105 % of control | T/C [13]: 114 % of control | T/C [14]: 94 % of control | T/C [15]: 109 % of control | T/C [16]: 97 % of control

CCOC(=O)C(Br)C(Br)C(=O)OCC (configuration not stated)
T/C [7]: 89 % of control | T/C [1]: 104 % of control

NCc1cc(=O)[nH]o1
T/C (dose: 2.5 mg/kg/injection, schedule: Q01DX005 (ip), vehicle: saline): 98 % of control | T/C (dose: 5.0 mg/kg/injection, schedule: Q01DX005 (ip), vehicle: saline): 106 % of control

CC(C)C(=O)c1ccc(-c2ccccc2)cc1
T/C (dose: 12.5 mg/kg/injection, schedule: Q01DX009 (ip), vehicle: water): 105 % of control | T/C (dose: 25.0 mg/kg/injection, schedule: Q01DX009 (ip), vehicle: water): 113 % of control | T/C (dose: 25.0 mg/kg/injection, schedule: Q04DX003 (ip), vehicle: water): 97 % of control | T/C [10]: 102 % of control | T/C (dose: 50.0 mg/kg/injection, schedule: Q04DX003 (ip), vehicle: water): 101 % of control | T/C [11]: 111 % of control | T/C [12]: 97 % of control | T/C [13]: 102 % of control | T/C [14]: 92 % of control | T/C [15]: 119 % of control | T/C [16]: 89 % of control

CCOC(=O)c1c(C)c2c(n1C)CCc1cn[nH]c1-2
T/C [17]: 103 % of control | T/C [8]: 120 % of control | T/C [9]: 106 % of control

Cc1ccc(N2CCN(CCCN3CCN(c4ccc(Cl)cc4)CC3)CC2)cc1
T/C (dose: 50.0 mg/kg/injection, schedule: Q04DX003 (ip), vehicle: saline sonified): 100 % of control | T/C (dose: 100.0 mg/kg/injection, schedule: Q04DX003 (ip), vehicle: saline sonified): 95 % of control | T/C (dose: 200.0 mg/kg/injection, schedule: Q04DX003 (ip), vehicle: saline sonified): 95 % of control

CN(C)c1ccc(NC(=O)C(c2ccccc2)c2ccccc2)cc1
T/C (dose: 50.0 mg/kg/injection, schedule: Q01DX005 (ip), vehicle: saline): 86 % of control | T/C (dose: 100.0 mg/kg/injection, schedule: Q01DX005 (ip), vehicle: saline): 90 % of control | T/C (dose: 200.0 mg/kg/injection, schedule: Q01DX005 (ip), vehicle: saline): 109 % of control

Cn1nnnc1N/N=C(\Br)c1ccccc1
T/C [6]: 110 % of control | T/C [7]: 105 % of control | T/C [1]: 120 % of control | T/C [2]: 104 % of control | T/C [3]: 120 % of control | T/C [4]: 95 % of control | T/C [5]: 90 % of control

Nc1cccc(OCCCCCOc2cccc(N)c2)c1
T/C (dose: 12.5 mg/kg/injection, schedule: Q01DX009 (ip), vehicle: Klucel (hydroxypropylcellulose) (HPC)): 96 % of control | T/C (dose: 25.0 mg/kg/injection, schedule: Q01DX009 (ip), vehicle: Klucel (hydroxypropylcellulose) (HPC)): 108 % of control | T/C [17]: 94 % of control
